The text below walks through data of EPA's ToxValDB 9.5 (doi:10.2903/j.efsa.2013.3253).

One data set relates to Rattus norvegicus. The settings on record: mortality.
A further data set relates to Daphnia magna. The settings on record: chronic/long-term; duration: 22 days; reproduction.
The next data set relates to Pimephales promelas. As to conditions: chronic/long-term; duration: 33 days; growth.
Another data set concerns Neomysis kadiakensis. As to conditions: acute; duration: 96 hours; mortality.
The subject of the next data set is Apis mellifera. The settings on record: acute, duration: 48 hours, mortality.
Another data set concerns Canidae. The settings on record: chronic; duration: 1 years; oral; Dog Other; histopathology: nonneoplastic.
For a further data set, the system named is Tagia sp. As to conditions: acute; duration: 14 days; mortality.
In a further data set the test system is Cyprinodon variegatus. As to conditions: acute; duration: 96 hours; mortality.

Each structure is given as a SMILES string. In brackets after ≈: the same amount, converted by molar mass.

By NOAEL is commonly meant the highest dose or exposure tested at which no adverse effect was seen. `COC(=O)CC(NC(=O)[C@@H](NC(=O)OC(C)C)C(C)C)c1ccc(Cl)cc1` (stereo partly specified) [Valifenalate]: the LD50 is over 2250 mg/kg in the data set with Anas platyrhynchos (acute, oral, unspecified, mortality); over 5000 mg/kg in the data set on Rattus norvegicus (acute, oral); over 2250 mg/kg with Colinus virginianus (acute, oral, mortality); over 100 µg/piece with Apis mellifera (dermal); over 107 µg/piece in the data set on Apis mellifera (oral, unspecified). The NOAEL with Anas platyrhynchos (reproductive, reproduction) worked out at 167 mg/kg-day; in the data set on Rattus norvegicus (reproduction developmental) it was 80 mg/kg-day; with Colinus virginianus (reproduction developmental, reproduction), 104 mg/kg-day; in the data set with Canidae it was 7 mg/kg-day. Further, the LC50 in the data set with Anas platyrhynchos (short-term, oral, feed, mortality) was over 2650 mg/kg-day; in the data set on Colinus virginianus (acute, oral, diet, mortality) it was over 1510 mg/kg-day; with Neomysis kadiakensis it was 2.8 µg/mL (≈ 7.02 µM); in the data set on Tagia sp. it was over 1000 mg/kg; in the data set on Cyprinodon variegatus it was over 15 µg/mL. The NOEC in the data set with Daphnia magna stood at 3.2 mg/L; in the data set with Pimephales promelas, 12 mg/L.
